Results: patent US20230399298A1 (priority 2020, published 2023)

Tests used:
[1] = Raw material accelerated stability comparison test (40° C., RH 75%, light-shielding seal, HPLC); type: physicochemical
Method: (§1) The HPLC conditions used in the present disclosure were as follows, and the purity of donepezil ether palmitate hydrochloride was measured. • 1) detector: ultraviolet absorption photometer (measurement wavelength: 276 nm) • 2) column: YMC-Pack Pro C18 (4.6×250 mm, 5 μm) • 3) mobile phase A: Solution obtained by dissolving 1.88 g of sodium 1-hexanesulfonate in 1000 mL of purified water, and then adding 1.0 mL of phosphoric acid thereto, wherein each amount of reaction substances was accurately weighed. • 4) mobile phase B: acetonitrile
accelerated stability over time of donepezil ether palmitate (DEP) and donepezil ether palmitate hydrochloride (DEP HCl).
Specifically, in the experiments, each compound was stored in a light-shielding seal under accelerated conditions (40° C., RH 75%), and the chemical stability thereof was analyzed by HPLC (purity and increased amount of related substances).

[2] = Raw material harsh stability comparison test (60° C., HPLC); type: physicochemical
Method: as §1
Experiments were conducted to evaluate the raw material harsh stability over time of donepezil ether palmitate (DEP) and donepezil ether palmitate hydrochloride (DEP HCl).
Specifically, in the experiments, each compound was stored under a condition of 60° C., and the chemical stability thereof was analyzed by HPLC (purity and increased amount of related substances).

[3] = Formulation stability comparison test (suspension in benzyl benzoate and castor oil, 60° C. and 80° C., HPLC); type: physicochemical
Method: as §1
Experiments were conducted to evaluate the formulation stability over time of donepezil ether palmitate (DEP) and donepezil ether palmitate hydrochloride (DEP HCl).
Specifically, each of DEP and DEP HCl was mixed with benzyl benzoate and castor oil to prepare a suspension, and then stored at 60° C. and 80° C. The chemical stability was analyzed by HPLC (purity and increased amount of related substances), and results thereof are shown in Table 4.

SMILES: CCCCCCCCCCCCCCOCC(=O)OC1=C(CC2CCN(Cc3ccccc3)CC2)Cc2cc(OC)c(OC)cc21 [DEP, 2-((1-benzylpiperidin-4-yl)methyl)-5,6-dimethoxy-1H-inden-3-yl 2-(tetradecyloxy)acetate]
- purity decreased by ([1]; 6th month versus initial): about 2.47%
- PT impurity ([1]; Initial): 0.02%
- Purity ([1]; Initial): 99.22%
- PT impurity ([1]; Month 1): 0.04%
- Purity ([1]; Month 1): 99.05%
- PT impurity ([1]; Month 3): 0.08%
- Purity ([1]; Month 3): 98.65%
- PT impurity ([1]; Month 6): 0.13%
- Purity ([1]; Month 6): 96.75%
- purity decreased by ([2]; 2nd week versus initial): about 18.60%
- PT impurity ([2]; Day 1): 1.61%
- Purity ([2]; Day 1): 95.44%
- PT impurity ([2]; Day 3): 3.33%
- Purity ([2]; Day 3): 92.05%
- Purity ([2]; Initial): 99.76%
- PT impurity ([2]; Week 2): 4.39%
- Purity ([2]; Week 2): 81.16%
- melting point: 55.1 °C
- Purity ([3]; Day 1 at 80° C.): 97.96%
- Purity ([3]; Initial): 99.79%
- Purity ([3]; Week 1 at 60° C.): 97.54%
